Test results published in US10350206B2, “Benzyl substituted indazoles as BUB1 inhibitors” (Bayer Pharma Aktiengesellschaft, priority 2014, dated 2019).
Where two headings read alike, the source gives them in different places.

Assays:
[1] = system: Bub1 kinase (histone 2A phosphorylation); experiment: H2A Formation-Assay (cell-based mechanistic assay, co-treatment with Nocodazole); settings: 16 h, Nocodazole 1 μg/ml together with test compound for 16 h; read-out: Biological Assay 4.1: H2A Formation IC50
[2] = target: T1, catalytic domain of human Bub1 (amino acids 704-1085) (Homo sapiens, UniProt O43683); experiment: Equilibrium probe competition assay (TR-FRET kinase binding assay); settings: read-out: Assay 5 IC50
T1 construct: catalytic domain of human Bub1 (amino acids 704-1085); His6 (N); made in house; host or cells: Hi5 insect cells
Description: The half-life of prodrugs (Table 3) poses a challenge for the verification of their biological activity. The Bub1 enzymatic activity assay (as per Biological Assay 1.0 infra) requires a minimum reaction time of 60 minutes in order to be able to assess the inhibitory activity of the compounds. During this time typically 20% to 60% of the prodrugs have been already converted to their corresponding drugs at the pH of 7.5 at which the assay is performed. Ideally one would perform the biological assay at a pH at which the prodrug is stable (e.g. pH 4). […] Alternatively, an assay requiring shorter incubation times would better estimate the binding affinities of the prodrugs. […] Extrapolating the stability data from Tables 3 and 4, one would expect at this time point most of the compound present in the test solution to be the prodrug.
FIGS. 1 and 2 combine the results from Biological Assay 5 with those from Biological Assay 6. The binding affinities over time of drug and prodrug pairs are shown as pIC50 together with the prodrug stability, and the pIC50 to be expected if only the drug present in the sample was responsible for the activity in the assay. Extrapolating the pIC50 from these graphs to time 0 (at which 100% of prodrug is present in the sample), the actual affinity of the drug and prodrug can be inferred. Secondly, looking at the differences between expected and real pIC50 an estimate can be made about the contribution of the prodrug to the observed activity.
Biological Assay 5.0: Equilibrium Probe Competition Assay:
Bub1 binding affinity of compounds described in the present invention were quantified using a time-resolved fluorescence energy transfer (TR-FRET) kinase binding assay which measures displacement of the synthetic fluorescent probe 5-[({2-[2-({2-[1-(4-ethoxy-2,6-difluorobenzyl)-1H-indazol-3-yl]-4-(pyridin-4-ylamino)pyrimidin-5-yl}oxy)ethoxy]ethyl}carbamothioyl)amino]-2-(6-hydroxy-3-oxo-3H-xanthen-9-yl)benzoic acid (6-5-1) by the (recombinant) catalytic domain of human Bub1 (amino acids 704-1085). The enzyme was expressed in Hi5 insect cells with N-terminal 6×His/AviTag® sequences, purified by affinity- (Ni-NTA) and size exclusion chromatography and site-specific biotinylated ex-vivo using a commercially available kit (Avidity).
In a typical assay 11 different concentrations of each compound (0.1 nM, 0.33 nM, 1.1 nM, 3.8 nM, 13 nM, 44 nM, 0.15 μM, 0.51 μM, 1.7 μM, 5.9 μM and 20 μM) were tested in duplicate within the same microtiter plate. To this end, 100-fold concentrated compound solutions (in DMSO) were made by serial dilution (1:3.4) of freshly prepared 2 mM stocks in a clear low volume 384-well source microtiter plate (Greiner Bio-One, Frickenhausen, Germany), from which 50 nl of compounds were transferred into a black low volume test microtiter plate from the same supplier. Subsequently 2 μL of a solution containing biotinylated Bub1 (the final concentration of Bub1 was adjusted depending on the activity of the enzyme lot in order to be within the linear dynamic range of the assay: typically ˜[…] were used) and 1 nM Streptavidin Terbium Cryptate (Cisbio, No. 610SATLB) in aqueous assay buffer [50 mM Tris/HCl pH 7.5, 200 mM potassium chloride (KCl), 1.0 mM dithiothreitol (DTT), 0.1 mM sodium ortho-vanadate, 1% (v/v) glycerol, 0.01% (w/v) bovine serum albumine (BSA), 0.005% (v/v) Triton X-100 (Sigma), were added to the compounds in the test plate and the mixture was incubated for 15 min at 22° C. to allow pre-equilibration of the putative enzyme-inhibitor complexes before the start of the probe competition reaction, which was initiated by the addition of 3 μL 1.67-fold concentrated solution (in assay buffer) of 6-5-1 (final concentration: 1.5 nM). The resulting mixture (5 μL final volume) was incubated at 22° C. during 0, 15, 30, 60, 120, 240 and 1440 min. […]

| Structure (SMILES) | IC50 [1] | IC50 ([2]; Time 15 min) | IC50 ([2]; Time 30 min) | IC50 ([2]; Time 60 min) | IC50 ([2]; Time 90 min) | IC50 ([2]; Time 120 min) | IC50 ([2]; Time 240 min) | IC50 ([2]; Time 1440 min) |
| --- | --- | --- | --- | --- | --- | --- | --- | --- |
| COc1cnc(-c2nn(Cc3c(F)cc(OCCO)cc3F)c3ccccc23)nc1Nc1ccnc(C)c1 [Example 2-1-2, 2-{3,5-difluoro-4-[(3-{5-methoxy-4-[(2-methylpyridin-4-yl)amino]pyrimidin-2-yl}-1H-indazol-1-yl)methyl]phenoxy}ethanol] | 8.7 nM | 1.6 nM | 3.5 nM | 2.2 nM | 3.2 nM | 2.9 nM | 4 nM | 2.4 nM |
| COc1cnccc1Nc1nc(-c2nn(Cc3c(F)cc(OCCO)cc3F)c3ccccc23)ncc1OC [Example 2-1-3, 2-{3,5-difluoro-4-[(3-{5-methoxy-4-[(3-methoxypyridin-4-yl)amino]pyrimidin-2-yl}-1H-indazol-1-yl)methyl]phenoxy}ethanol] | 43 nM | 1.7 nM | 1.3 nM | 0.9 nM | 0.54 nM | 0.49 nM | 0.31 nM | 0.2 nM |
